Laboratory results published in ChEMBL document CHEMBL4811261, “Synthesis and biological evaluation of novel benzo[a]pyridazino[3,4-c]phenazine derivatives” (Bioorg Med Chem Lett, 2021).

Key:
KB = experiment: Cytotoxicity against human KB cells assessed as cell viability measured by MTT assay; format: functional, cell-based
HepG2 = experiment: Cytotoxicity against human HepG2 cells assessed as cell viability measured by MTT assay; format: functional, cell-based
[1] = Cytotoxicity against human Lu1 cells assessed as cell viability measured by MTT assay; format: functional, cell-based
MCF7 = experiment: Cytotoxicity against human MCF7 cells assessed as cell viability measured by MTT assay; format: functional, cell-based
HEK293 = experiment: Cytotoxicity against human HEK293 cells assessed as cell viability measured by MTT assay; format: cell-based
Staphylococcus aureus = experiment: Antibacterial activity against Staphylococcus aureus measured by broth microdilution method; format: functional, organism-based
Bacillus subtilis = experiment: Antibacterial activity against Bacillus subtilis measured by broth microdilution method; format: functional, organism-based
[2] = tested on: Limosilactobacillus fermentum; experiment: Antibacterial activity against Lactobacillus fermentum measured by broth microdilution method; format: functional, organism-based
Escherichia = experiment: Antibacterial activity against Escherichia measured by broth microdilution method; format: functional, organism-based
Pseudomonas aeruginosa = experiment: Antibacterial activity against Pseudomonas aeruginosa measured by broth microdilution method; format: functional, organism-based
Salmonella enterica = experiment: Antibacterial activity against Salmonella enterica measured by broth microdilution method; format: functional, organism-based
Candida albicans = experiment: Antifungal activity against Candida albicans measured by broth microdilution method; format: functional, organism-based

Row | Compound | IC50 (Staphylococcus aureus) [µM] | IC50 (Bacillus subtilis) [µM] | IC50 [2] [µM] | IC50 (Escherichia) [µM] | IC50 (Pseudomonas aeruginosa) [µM] | IC50 (Salmonella enterica) [µM] | IC50 (Candida albicans) [µM] | IC50 (KB) [µM] | IC50 (HepG2) [µM] | IC50 [1] [µM] | IC50 (MCF7) [µM] | IC50 (HEK293) [µM]
1 | COc1cccc(C2=NN(C)c3c(c4nc5ccccc5nc4c4ccccc34)C2c2cccc(OC)c2)c1 (stereo not given) | > 100 | 90.8 | > 100 | > 100 | > 100 | > 100 | > 100 | 64.4 | 36.3 | 56 | 70.7 | > 100
2 | CN1N=C(c2ccc3ccccc3c2)C(c2ccc3ccccc3c2)c2c1c1ccccc1c1nc3ccccc3nc21 (stereo not given) | > 100 | > 100 | > 100 | > 100 | > 100 | > 100 | > 100 | > 100 | 81.4 | > 100 | > 100 | > 100
3 | CN1N=C(c2ccccc2)C(c2ccccc2)c2c1c1ccccc1c1nc3ccccc3nc21 (stereo not given) | > 100 | > 100 | > 100 | > 100 | > 100 | > 100 | > 100 | 19.4 | 10.5 | 18.6 | 22 | > 100
4 | CC1(C)S[C@@H]2[C@H](NC(=O)[C@H](N)c3ccccc3)C(=O)N2[C@H]1C(=O)O [AMPICILLIN] | 0.02 | 0.3 |  |  |  |  |  |  |  |  |  | 
5 | Cc1c2ccncc2c(C)c2c1[nH]c1ccccc12 [ELLIPTECINE] |  |  |  |  |  |  |  | 1.26 | 1.34 | 1.83 | 2.48 | 6.58

More lines, main results first:

Row | IC50 (Staphylococcus aureus) [µM] | IC50 (Bacillus subtilis) [µM] | IC50 [2] [µM] | IC50 (Escherichia) [µM] | IC50 (Pseudomonas aeruginosa) [µM] | IC50 (Salmonella enterica) [µM] | IC50 (Candida albicans) [µM] | Compound | IC50 (KB) [µM] | IC50 (HepG2) [µM] | IC50 [1] [µM] | IC50 (MCF7) [µM] | IC50 (HEK293) [µM]
6 | 84.4 | 84.6 | > 100 | > 100 | > 100 | > 100 | > 100 | CN1N=C(c2cccc(Br)c2)C(c2cccc(Br)c2)c2c1c1ccccc1c1nc3ccccc3nc21 (stereo not given) | > 100 | > 100 | > 100 | > 100 | > 100
7 | > 100 | > 100 | > 100 | > 100 | > 100 | > 100 | > 100 | CN1N=C(c2ccc(S(C)(=O)=O)cc2)C(c2ccc(S(C)(=O)=O)cc2)c2c1c1ccccc1c1nc3ccccc3nc21 (stereo not given) | 62.5 | 44.7 | > 100 | 62.7 | > 100
8 | > 100 | 77.9 | > 100 | > 100 | > 100 | > 100 | > 100 | CN1N=C(c2ccc([N+](=O)O)cc2)C(c2ccc([N+](=O)[O-])cc2)c2c1c1ccccc1c1nc3ccccc3nc21 (stereo not given) | > 100 | > 100 | > 100 | > 100 | > 100
9 | > 100 | > 100 | > 100 | > 100 | > 100 | > 100 | > 100 | CN1N=C(c2ccc(Cl)cc2)C(c2ccc(Cl)cc2)c2c1c1ccccc1c1nc3ccccc3nc21 (stereo not given) | > 100 | > 100 | > 100 | > 100 | > 100
10 | 4.21 | 5.91 | > 100 | > 100 | > 100 | > 100 | > 100 | CN1N=C(c2ccc(Br)cc2)C(c2ccc(Br)cc2)c2c1c1ccccc1c1nc3ccccc3nc21 (stereo not given) | > 100 | > 100 | > 100 | > 100 | > 100
11 | > 100 | > 100 | > 100 | > 100 | > 100 | > 100 | > 100 | COc1ccc(C2=NN(C)c3c(c4nc5ccccc5nc4c4ccccc34)C2c2ccc(OC)cc2)cc1 (stereo not given) | 16.7 | 14.6 | 18.2 | 21.8 | 73.4
